The conditions of data set [1]: literature; cited from earlier work.
A further data set deals with laboratory mice and rats. The data set is described as follows: acute toxicity, LD50/30, injection into blood circulation, 30 days observation. In kind it is in vivo, Swiss mice and Wistar rats. The method, then:
(§1) The acute toxicity values of the products prepared according to Examples 1 to 16 were determined on laboratory mice and rats in the following manner.
(§2) Solutions containing the compounds in various concentrations were prepared by using physiological saline solution or glucose solution of 5% by weight concentration and the active agents were administered in various concentrations into the blood circulation of the animals by injecting them slowly during 3 to 5 minutes. Groups consisting of 6 to 10 animals (Swiss mice and Wistar rats of both sexes) each were used for the various dose levels. […] The LD50/30 value (i.e. the dose causing the death of 50% of the experimental animals within 30 days) was determined from the number of animals died during this period by using probit analysis/D. J. Finney: Probit Analysis (2nd ed.) Cambridge University Press (1952)/. These values expressed in mmol/kg of body-weight for the active agents according to the invention are summarized in column (B) of Table 1.

The nature of data set [2]: radioactive isotope elimination-increasing effect, isotope into abdominal cavity, whole-body retention. In kind it is in vivo, Swiss mice. Conditions: for EI value: effectivity (isotope elimination as % related to control) multiplied by LD50/30, 0-5 weak, 5-50 medium, 50-100 good, above 100 excellent; for F factor: multiplication of isotope elimination relative to untreated animals, i.v. 50 to 100 μmol/kg, 30 to 60 minutes after isotope. The source says: (§3) The action of the compounds of formula (I) according to the invention, which manifests itself as an increase in the elimination of metal ions damaging the living organism, was investigated by using radioactive strontium or cerium ions on Swiss mice and Wistar rats of both sexes.
(§4) The elimination was studied on radioactive isotopes introduced in various routes to various sites, e.g. to the blood circulation, abdominal cavity, lungs, muscles or subcutaneous connective tissue of the experimental animals. The compound increasing the elimination of the isotopes was administered daily once or two times in the form of an injection, powder or liquid aerosol or plaster to the organism of the experimental animals. Thereafter, whole body activity measurements were performed and retention curves were taken up which then were compared to the results obtained in the control group.
The retention curves obtained were analysed on a computer. "Nonlinear Regression by the Code of BMDP-3R" (BMDP Statistical Software Manual, UCLA, Los Angeles, 1990, Chief Ed. W. J. Dixon) computer software was used for this purpose. It could be stated from the results obtained that the curves could be described by a two-component descending exponential function. Two data were calculated for characterizing the effectivity. One of these was the so-called F factor indicating the increase in the elimination in relation to the control and meaning the multiplication of the isotope elimination under effect of the test compound in relation to the untreated animals/see column (C) in Table 1/.
For the illustrative comparison of the compounds according to the invention additional characteristic data, the so-called EI values are given which were obtained by multiplying the extent of isotope elimination as percentage related to the control group (effectivity, E) with the acute toxicity value (LD50/30, innocuous, I)/see column (D) in Table 1/. Although the EI value is numerically not identical to the therapeutic ratio (safety index), it indicates in all cases to a weak or excellent activity of a product.
The radioactive isotope elimination-increasing effects of compounds prepared according to Examples 1 to 16 were compared on Swiss mice as described hereinafter.
An activity of 37 to 74 kBg (1 to 2 μCi) of radioactive strontium (Sr-85Cl2) or radioactive cerium (Ce-144Cl3), respectively, was administered into the abdominal cavity of the animals which were then divided into treatment groups consisting of 5 to 10 animals each. At 30 to 60 minutes after administration of the isotope, the animals of the treated groups were intravenously (i.v.) given the active agent used in an amount to achieve s concentration of 50 to 100 μmol/kg of body-weight in the animal organism for each treatment. The animals of the control groups were similarly treated with the carrier (sterile physiological saline or glucose solution of 5% by weight concentration) without active agent.
The amount of radioactivity introduced to the animal organism was determined immediately after administration of the isotope, thru these measurements were repeated daily or in every two the or three days in a device constructed for the purpose of the whole-body measurements on small animals. The counts observed were related to the starting activity value of the zero (0) day and a so-called retention/time correlation was obtained by considering the activity retained in the organism. The change of activity of the animal organism in the time is illustrated in FIG. 1 where the time (in days) elapsed after the treatment is shown on the abscissa and the whole-body retention as percentage is plotted on the ordinate. It can be seen that the rate of elimination of Sr-85 administered into the abdominal cavity of control animals was slow: within 1 day only 15%, within 4 days 25% and within 7 days 30% of the activity were eliminated from their organism and the elimination was even more delayed in the later period. […]

The nature of data set [3]: elimination of radioactive strontium introduced through the trachea into the lungs, whole-body retention (FIG. 2). In kind it is in vivo, Wistar rats. The text has this:
FIGS. 2 & 3 show the percentages of metal ions retained in the body, plotted over 32 days after treatment with compound "b)" of example 6 at both full and double strength, referenced against an untreated control.
a) The whole-body retention curves illustrated in FIG. 2 show the elimination of radioactive strontium introduced through the trachea into the lungs of Wistar rats after intraperitoneal (i.p.) administration of the compound described in Example 6 b). It can be seen from the pattern of the upper curve of FIG. 2 that the radioactive strontium was eliminated to a low grade from the organism of control animals treated only with the solvent. Not more than 30 to 35% of the starting activity were eliminated in the days following the inner contamination. […] The rapid elimination of the isotope was continued in the days following the treatment, and reached 88 to 90% in the once-treated group and 94 to 96% in the twice-treated group. […] The residual activity of 5 to 10% measured as whole-body retention was found in the soft parts and liver of the animals whereas the major part (65 to 70%) of the retention found in the controls were built in to the bones. Similarly advantageous results were obtained by administering the compounds according to the invention in an intravenous route or into the subcutaneous connective tissue.

Data set [4] in a line: acute toxicity, LD50/30, injection into blood circulation, 30 days observation. It is filed as in vivo, Swiss mice and Wistar rats. Conditions: in vivo, iv; dose causing death of 50% of animals within 30 days; slow injection into the blood circulation during 3 to 5 minutes; mice and rats; probit analysis. The protocol:
as §1, §2

Data set [5] in a line: decorporation investigations by various routes, whole-body activity and deposition in bones. In kind it is in vivo, Swiss mice and Wistar rats. Conditions: decorporating effect; disodium salt.
Source text: as §3, §4
The retention curves obtained were analysed on a computer. "Nonlinear Regression by the Code of BMDP-3R" (BMDP Statistical Software Manual, UCLA, Los Angeles, 1990, Chief Ed. W. J. Dixon) computer software was used for this purpose. It could be stated from the results obtained that the curves could be described by a two-component descending exponential function. Two data were calculated for characterizing the effectivity. […]

“Also recorded” adds a separate entry of the source. Where a name gives a salt, the structure may show the parent alone.

On to `O=C(O)CN(CCN(CC(=O)O)CC(=O)O)CCN(CC(=O)O)CC(=O)O` [diethylenetriaminepentaacetic acid], for which the “stability of calcium complexes versus strontium complexes” value in data set [1] is recorded as “substantially more stable than their strontium complexes”.
Regarding `O=C(O)CN(CCN(CC(=O)O)CC(=O)O)CC(=O)O` [ethylenediaminetetraacetic acid], in data set [1], the “stability of calcium complexes versus strontium complexes” value is “substantially more stable than their strontium complexes”.
On to “N,N'-bis(dicarboxymethyl)-1,4,10,13-tetraoxa-7,16-diazacyclooctadecane calcium complex disodium salt containing disodium hydroxymalonate and sodium chloride [6/b]”, for which the “Acute toxicity LD50/30” value in the data set on laboratory mice and rats (dose causing death of 50% of animals within 30 days, slow injection into the blood circulation during 3 to 5 minutes, mice and rats, probit analysis) is reported as “above 3.0 mmol/kg”. Moreover, in data set [2], the EI value is given as 160.00 and the F factor is on record as 4.2. Besides, the “radioactive strontium in the bones” value in data set [3] (animals killed at the end of the experiment, controls 65 to 70% of retention built in to the bones) was “hardly any or no radioactive strontium could be detected”. In addition, the “whole-body load within 1 day following the treatment, treated once” value in data set [3] (i.p., once with 50 μmol/kg, control 90%) was 20%. Also, the “whole-body load within 1 day following the treatment, treated twice” value in data set [3] (i.p., twice in 3-hour interval, control 90%) is 20%.
Consider `O=C(O)C(Cc1ccccc1)(C(=O)O)N1CCOCCOCCN(C(Cc2ccccc2)(C(=O)O)C(=O)O)CCOCCOCC1` [Example 16, N,N'-bis(benzyl-dicarboxymethyl)-1,4,10,13-tetraoxa-7,16-diazacyclooctadecane tetrasodium salt sodium bromide double salt], for which the 50% lethal dose (LD50) – broadly, the dose at which mortality reaches 50% – at 720 h in data set [4] was found to be 470 µmol/kg. In addition, in data set [2], the EI value was 7.10 and the F factor was 1.3.
Taken in the same sequence, the figures for `O=C(O)C(C(=O)O)N1CCOCCOCCN(C(C(=O)O)C(=O)O)CCOCCOCC1` [Example 2, N,N'-bis(dicarboxymethyl)-1,4,10,13-tetraoxa-7,16-diazacyclooctadecane tetrasodium salt containing disodium hydroxy malonate] were 368 µmol/kg, 11.10 and 3.3.
For `O=C([O-])C(C(=O)[O-])N1CCOCCOCCN(C(C(=O)[O-])C(=O)[O-])CCOCCOCC1.[Ca+2].[Na+].[Na+]` [N,N'-bis(dicarboxymethyl)-1,4,10,13-tetraoxa-7,16-diazacyclooctadecane calcium complex disodium salt], the “toxicity (in words)” value in the data set on laboratory mice and rats (in vivo) is given as “low toxicity”. Also, the “effectivity (in words)” value in data set [5] was “particularly outstanding effect; also recorded: high decorporating effectivity”.

These data come from US5440031A, “1,4,10,13-tetraoxa-7,16-diazacyclooctadecane derivatives, pharmaceutical compositions containing them and their use for the removal of toxic metal ions and radioactive isotopes from living organism” (priority 1990, dated 1995).
